Series [1] deals with hERG ion channel (Homo sapiens, UniProt Q12809). Kind of series: hERG QPatch automated patch clamp. The format is cell-based. The settings on record: CHO cells stably expressing hERG, QPatch 48, tail current. The method, then: hERG IC50 data was supplied by Metrion using their standard assay protocol briefly detailed below.
hERG ion channel screening was assayed in CHO cells stably expressing the human ether-á-go-go related gene, using the QPatch 48 automated, chip-based planar patch clamp device. A Gigaohm seal between the cell membrane and treated silicon surface was obtained and specific external and internal buffered solutions applied to cells prior to recording. Following baseline vehicle treatment, compounds were applied in increasing concentrations (8 pt CRC), effects on hERG tail current amplitudes were measured in two-minute recordings.

Series [2] has as its system HUVEC. The experiment in a line: HUVEC Cell Viability (CV) assay. Format: cell-based, human. As to conditions: Homo sapiens, alamarBlue. The method, then: Cells are seeded at 10,000 cells/well in 96-well plates in HUVEC specific cell culture media. Cells are plated and cultured overnight (16-24 h) at 37° C. After the overnight culture, cells are washed and fed with the Assay Medium. Test compounds are applied and incubated with the cells for the designated time period, after which the cell viability is measured by alamarBlue method. […] The final DMSO concentration is 1%.
Fluorescence readings are recorded after the test compound and alamarBlue incubation. The excitation and emission wavelengths are 530 nm and 590 nm, respectively.
The percent of control is calculated by comparing the readings in the presence of the test compound to the vehicle control. Subsequently, the percent inhibition is calculated by subtracting the percent control activity from 100. IC50 values (concentration causing a half-maximal inhibition of the control value) are determined by non-linear regression analysis of the concentration-response curves using the Hill equation.
The reference compound used for this assay is Staurosporine.

Series [3] deals with murine Hb9-GFP+ motor neurons in co-culture with ALS patient iAstrocytes. The experiment in a line: Human iAstrocyte - murine Hb9-GFP+ motor neuron co-culture. The format is cell-based, human iAstrocytes. The text has this: iNPCs (induced Neuronal Progenitor Cells) were derived from ALS patient fibroblasts as described previously (Meyer et al. 20148). iNPCs were differentiated into iAstrocytes by culturing in iAsrocyte media for at least 5 days. Murine motor neurons expressing the green fluorescent protein (GFP) under the Hb9 motor neuron-specific promoter (called from now on Hb9-GFP+) were differentiated from murine embryonic stem cells via embryoid bodies (EBs), as previously described (Haidet-Phillips et al. 20119, Wichterle et al. 200210).
iNPCs and mESC were split into iAstrocyte media and mEB media respectively on the same day, such that iAstrocytes and motor neurons will have both differentiated for 7 days when seeded together in co-culture.
Changed media on iAstrocytes, and split using accutase if 90-100% confluent 3 days after seeding from iNPCs. iAstrocytes were left a further 2 days in iAstrocyte media until seeded onto 384-well plates.
Diluted fibronection 1:400 in PBS, and 5 μL added per well. The plate was incubated with fibronectin at room temp for at least 5 mins.
The media was removed from iAstrocytes, and washed in PBS. 1 mL accutase per 10 cm plate was added, and incubated at 37° C. for 4 mins. The plate was tapped to dislodge any remaining iAstrocytes. The iAstrocytes were resuspended in iAstro media, and centrifuged at 200×g for 4 mins. The supernatant was removed, the falcon was flicked to vortex the cells, and resuspended the cells in an appropriate amount of iAstrocyte media. Counted cells using the haemocytometer, and diluted cells to an appropriate dilution for seeding. Seeded 1-2,000 iAstrocytes in 35 μL media on fibronectin-coated 384-well plates. Centrifuged 384-well plates at 1,760×rpm for 60 s using a PK120 (ALC) centrifuged (in neurogenetics) to collect media and cells to base of wells. Plates were left for 24 h for iAstrocytes to adhere to plate.
Drugs were delivered in 100% drug-grade DMSO to iAstrocyte media using an Echo550 liquid handler (Labcyte). 384-well plates were centrifuged at 1,760×rpm for 60 s using a PK120 (ALC) centrifuge.
2 plates of EBs were collected in a 50 mL tube and centrifuged for 4 mins at 200×g. The supernatant was removed from EBs after centrifugation, and washed in 10 mL PBS then centrifuged again for 4 mins at 200×g, and PBS wash removed.
For each 50 mL tube, 2.75 mL EB dissociation buffer was added and then 250 μL 200 U/mL (10×) Papain. The solution was gently pipetted up and down 10 times, using a P1000 pipette, against the side of the falcon (EB pellet was not pipetted directly). 50 mL tube was put in 37° C. water bath and incubated for 5 mins. Tube removed every 3 mins and gently shaken. After 5 mins, additional 2 mL of EB dissociation and 100 μL 200 U/mL (10×) Papain were added, which was then pipette again 5 times with P1000 pipette, and returned to the water bath for another 5 mins. It was returned to water bath as before, and incubated for no longer than 15-20 mins.
Centrifuged for 5 mins at 300×g. Each 50 mL tube, 2.7 mL EB dissociation was prepared, to which 300 μL FBS and 150 μL 0.5 mg/mL DNaseI was added. The supernatant was removed from dissociated EBs and 3 mL of the FBS/DNaseI mix was added, pipetted up and down with P1000 pipette about 5 times. 5 mL FBS was added very slowly to the bottom of the falcon containing the dissociated EBs. The supernatant was removed and the cells very gently resuspended in about 3 mL MN media (more used if the pellet is large) and filtered through a 40 μm filter. 1 mL extra MN media was added to wash the filter.
2,500 murine Hb9-GFP+ motor neurons were seeded per well in 10 μL motor neuron media on top of the pre-treated iAstrocytes. 384-well plates were centrifuged at 1,760×rpm for 60 s using a PK120 (ALC) centrifuge.
Day8 15 μL motor neuron media were added per well. Hb9-GFP+ motor neurons were imaged using an INCELL analyser 2000 (GE Healthcare)—day 1 of co-culture. […]

Series [4] deals with α-synuclein in ReNcell VM Neuronal cells. Kind of series: Modulation of α-synuclein aggregation. Format: cell-based. How it is done: Compounds were assessed for their ability to modulate α-synuclein aggregation. ReNcell VM Neuronal cells were transduced with α-synuclein encoded adenovirus, and compounds were added after 24 hours. After 72 hours, compound was refreshed. After an additional 72 h, cells were fixated (a total of 6 days of compound treatment). Two distinct α-synuclein antibodies were added (Syn205 and MJF-14), imaging was performed on IN Cell 2200 at 10× magnification. Immunoreactivity is quantified by a high content algorithm. Compound data is normalized to a negative control (0.1% DMSO) and a positive control (10 μM KU0063794; CAS 938440-64-3).

Chain of hERG ion channel (Q12809 whole entry): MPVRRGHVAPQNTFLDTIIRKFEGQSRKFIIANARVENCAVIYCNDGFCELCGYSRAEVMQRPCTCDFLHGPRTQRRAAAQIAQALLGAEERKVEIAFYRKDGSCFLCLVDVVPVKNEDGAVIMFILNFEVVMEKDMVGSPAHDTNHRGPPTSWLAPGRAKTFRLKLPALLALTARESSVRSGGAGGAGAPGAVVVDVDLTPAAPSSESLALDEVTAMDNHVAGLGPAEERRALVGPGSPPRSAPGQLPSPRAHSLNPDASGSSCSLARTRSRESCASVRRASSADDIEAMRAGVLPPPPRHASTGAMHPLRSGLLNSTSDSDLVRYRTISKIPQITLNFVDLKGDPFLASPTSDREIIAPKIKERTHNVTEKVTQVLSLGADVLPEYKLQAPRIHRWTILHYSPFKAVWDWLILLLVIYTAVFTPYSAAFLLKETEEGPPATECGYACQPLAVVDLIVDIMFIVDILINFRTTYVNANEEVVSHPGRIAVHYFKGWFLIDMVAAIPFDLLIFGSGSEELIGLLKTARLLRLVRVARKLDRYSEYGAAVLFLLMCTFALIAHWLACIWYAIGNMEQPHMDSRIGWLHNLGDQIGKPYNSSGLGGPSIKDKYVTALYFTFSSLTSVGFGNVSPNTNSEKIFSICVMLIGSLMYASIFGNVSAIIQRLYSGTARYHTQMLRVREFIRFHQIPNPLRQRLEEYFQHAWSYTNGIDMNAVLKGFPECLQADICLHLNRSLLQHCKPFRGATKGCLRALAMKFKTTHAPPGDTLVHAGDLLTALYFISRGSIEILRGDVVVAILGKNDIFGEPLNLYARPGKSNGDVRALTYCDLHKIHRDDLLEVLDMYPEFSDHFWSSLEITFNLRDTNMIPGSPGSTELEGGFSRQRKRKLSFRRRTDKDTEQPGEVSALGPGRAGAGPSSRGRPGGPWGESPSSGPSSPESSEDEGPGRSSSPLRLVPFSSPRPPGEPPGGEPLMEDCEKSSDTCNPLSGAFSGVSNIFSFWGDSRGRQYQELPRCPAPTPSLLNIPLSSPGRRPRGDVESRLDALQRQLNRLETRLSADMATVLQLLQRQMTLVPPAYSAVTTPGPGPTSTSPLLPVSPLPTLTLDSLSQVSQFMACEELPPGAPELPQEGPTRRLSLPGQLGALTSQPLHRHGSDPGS

Turning to `Cc1ccc(C(=O)Nc2cn(C(C)C)cn2)cc1C#Cc1cccnc1` [Example 25, N-(1-isopropylimidazol-4-yl)-4-methyl-3-[2-(3-pyridyl)ethynyl]benzamide], the IC50 in series [1] was more than 10 µM; in series [2] it was 45 µM; in series [4] (ReNcell VM, 100% = reduction equal to 10 μM KU0063794, 0% = 0.1% DMSO), 1 to 10 µM. In series [3] (72 hours co-culture, dose dependant, maximum responses close to positive control (1 μM Nilotinib)), the “rescue of motor neuron survival in co-culture with patient-derived iAstrocytes (FIG. 3)” value is recorded as “rescue motor neuron survival”. For the same molecule, the “efficacy at very high concentrations (motor neuron survival)” value in series [3] (potentially due to compound toxicity) is “reduction in efficacy at very high concentrations”. Besides, the “amount of α-synuclein present in ReNcell VM neuronal cells (FIG. 4)” value in series [4] (6 days of compound treatment, antibodies Syn205 and MJF-14) was “dose dependant reduction”.

The values are drawn from patent publication US20230014226A1, “NEW COMPOUNDS AND METHODS” (BenevolentAI Bio Limited, priority 2019, published 2023).
